Reference: US20040043462A1, “Chamber for in vivo screening of angiogenesis and tumor growth modulating compounds” (priority 2003, published 2004)
Entries after “also recorded” stand apart in the source; their conditions may differ.

Legend:
[1] = tested on: tumor cells embedded in fibrin gel (T-ZC); assay: Tumor cell-containing chambers (T-ZC) implanted in animals, systemic SUGEN 5416 treatment; assay type: in vivo
Method: A tumor cell chamber, or tumor Z-chamber (T-ZC) is prepared by adding tumor cells to the fibrinogen solution before adding the solution to the chamber. The tumor cells are embedded in fibrin gel. Implantation is accomplished by making two 2 cm long incisions on the backs of the animals, followed by making blunt dissections on both sides to establish a pocket in the subcutaneous space. The chambers are inserted into these pockets. Clips are used to close the incision in rats and sutures are used for mice. A topical antibiotic, such as that sold under the registered trademark NEOSPORIN® by Glaxo-Wellcome, Inc., is applied over the incision. To harvest the chambers, a long incision is made on the backs of the animals. The surrounding fascia is observed and noted. The chambers are pushed from outside the animal and pulled out. Pictures are taken at this stage to observe differences, if any, between tissue within and encompassing the chamber and the surrounding tissue. The mesh and issue agglomerated thereon are cut from the chamber with scalpel (preferably a #11 blade) and then processed in accordance with a desired analysis approach.

[2] = tested on: wound healing response (granulation tissue, neovascularization) in F-ZC; assay: Fibrin Z-chamber (F-ZC) wound healing assay, systemic SU5416 treatment; assay type: in vivo, Fischer 344 rats; conditions: SUGEN 5416 20 mg/kg, control about 45, p=0.0009
[3] = tested on: wound healing response (granulation tissue, neovascularization) in F-ZC; assay: as above; assay type: in vivo, Fischer 344 rats; conditions: for residual D-dimer retention: SU5416 vs control (FIG. 16); for body weight loss: SU5416 20 mg/kg, F-ZC implantation, 10-12 days, vs control (FIG. 13)
Method: (§1) Schedule and Dose of Drug Administration.
Fibrin Z-Chambers (F-ZC): In accordance with the present invention, F-ZC were employed in a fibrin gel based in vivo assay. In F-ZC, fibrinogen and thrombin are added to a dual porous chamber through a port and chambers are then implanted in the subcutaneous tissue of the rats and harvested at day 12 post-implantation to assess the wound healing response generated due to presence of fibrin. These chambers are constructed from customized PLEXIGLAS® rings with internal diameter of 10 mm and have an access port drilled on the side. The two open surfaces are covered by nylon mesh (pore size 180 microns, # NY8H04700, Millipore, Mass.) glued to the rings. Fibrinogen (# 341578, CalBiochem, La Jolla, Calif.) was prepared in DMEM (# 11995-065, Gibco BRL, Rockville, Md.) at a concentration of 4 mg/ml and was converted to fibrin by addition of thrombin (#605160, CalBiochem, La Jolla, Calif.) inside the chambers.
Fischer 344 rats were anesthetized, hair removed using the clippers and the surface was surgically prepared. Two small midline skin incisions were made in the dorsal region about 4 cm apart. Fascia was blunt dissected and small pockets were created on both sides along the midline incision. Thus, four F-ZCs were implanted per animal.
Quantitation of Immunohistochemistry. Microvessel density (MVD) was calculated as described by Weidner (Weidner, N., et al., J Natl Cancer Inst (1992) 84(24):1875-87). Briefly, three hot spots or areas with highest visible blood vessels density (marked by the vessel marker) per sample section were selected and number of blood vessels counted at a high power field (400×). The data was then pooled for the control and treated tissues to arrive at the mean values for each group. Collagen was semi-quantitatively estimated on a scale of 0-4. Zero was described as negligible staining, 1 as weak, 2 as moderate, 3 as strong and 4 as complete staining as observed in dermis.
D-Dimer Measurements. The MINIQUANT™ D-Dimer (Cat # 1447, Biopool AB of Umea, Sweden) assay was used to measure residual D-Dimer in the chamber content lysates generated as detailed above. […] The measurements were carried out in duplicate. Each measurement is from pooled tissue for the treatment and control groups.

[4] = tested on: TGF β1; assay: TGF β1 ELISA on F-ZC tissue lysates; assay type: in vivo, Fischer 344 rats
Method: as §1
TGF β1 ELISA. Active TGF β1 ELISA was carried out in triplicate using DUOSET® kit (DY240, Genzyme Corporation, Cambridge, Mass.) as described previously (Danielpour, D., J Immunol Methods (1993) 158(1):17-25) with tissue lysates from chamber contents generated as detailed above. Latent form of […] was converted to immunoreactive form to ascertain total […] content. The data is shown as pg per mg of protein in the tissues.

[5] = tested on: wound healing response (granulation tissue) in fibrin-containing chambers; assay: F-ZC wound healing response with chamber administration of angiostatin; assay type: in vivo
Method: FIGS. 20A and 20B are photographs showing gross examination of fibrin-containing chambers of the present invention in which angiostatin was administered in laboratory animals in accordance with techniques described herein above for Laboratory Examples 1-9. […] Fibrin is inherently pale yellow in color and lack of blood vessels in angiostatin treated chambers results in the paler appearance of the chambers.
FIGS. 20C and 20D are photomicrographs showing depth (represented by line with arrowheads at each end) of granulation tissue developed inside fibrin-containing chambers of the present invention. Depth granulation was used as a measure for the healing response.
Scale=depth of granulation tissue (×10 microns).

[6] = Table 1, SU5416 vs control, n = 10

## Cc1cc(C)c(C=C2C(=O)Nc3ccccc32)[nH]1 [SU5416, 3-(2,4-Dimethylpyrrol-5-yl)methylene-2-indolinone]
[1]; SUGEN 5416 20 mg/kg systemic, T-ZC implantation, vs control animals (FIG. 9), 20 mg/kg
  body weight loss: no significant body weight loss; also recorded: no significant body weight lost
[1]; SUGEN 5416 20 mg/kg systemic, T-ZC, p<0.0001 (FIG. 10)
  tumor growth delay: significant tumor growth delay
[1]; SUGEN 5416 20 mg/kg systemic, T-ZC, control about 90% (FIG. 10)
  increase in tumor volume: 40%
[1]; T-ZC, SUGEN 5416 20 mg/kg, p=0.11 (FIG. 11)
  microvessel density (MVD) change: did not change
[1]; T-ZC, SUGEN 5416 20 mg/kg, control about 15 (FIG. 11)
  MVD per high power (200×) focal (HPF): about 13
[1]; T-ZC, SUGEN 5416 systemic vs control (FIG. 12)
  residual D-dimer retention: more residual D-dimer retention
[2]
  average MVD at 200× magnification: about 30
[3]; F-ZC at harvest day 12, SU5416 vs controls (FIGS. 17A, 17B)
  gross appearance of chambers (influx of blood vessels): distinctly paler color; also recorded: paler in color
[3]; F-ZC granulation tissue, SU5416 20 mg/kg IP, p=0.0006, 20 mg/kg
  collagen deposition (MT stain): distinctly decreased collagen deposition; also recorded: collagen was decreased
[3]; F-ZC, SU5416 20 mg/kg IP, day 12, p=0.0009
  reduction in microvessel density vs controls: 10%
[3]; F-ZC, SU5416 20 mg/kg IP, day 12, p=0.0076
  reduction of granulation tissue (depth) vs controls: 45%
[3]; F-ZC, SU5416 20 mg/kg vs control, listed as SUGEN 5416
  granulation tissue formation: inhibited granulation tissue formation
[3]; F-ZC, SU5416 treated vs controls
  decrease in collagen deposition (semi-quantitative, MT): > 70%
[3]; F-ZC
  residual D-dimer retention: remained elevated
[3]; F-ZC, listed as SUGEN 5416
  residual D-dimer retention: increase in residual D-dimer retention
[3]; F-ZC, SUGEN 5416 20 mg/kg vs control
  neovascularization: inhibited neovascularization
[3]; F-ZC, SUGEN 5416 20 mg/kg, magnification 10×, control about 45 mm, p=0.0076
  average depth of granulation tissue: about 25 mm
[3]; F-ZC, SUGEN 5416, after 10-12 days of implantation, control about 4,000 ng/ml
  D-dimer levels in chambers: about 13,000 ng/ml
[3]; 20 mg/kg
  body weight loss: maintained their pre-treatment weights
[3]; listed as SUGEN 5416
  body weight loss: no significant body weight loss
[3]; Table 1, F-ZC tissue lysates (pooled), SU5416, control 4100 ± 100
  D-Dimer: 185 ± 20 ng/mL
[3]; Table 1, F-ZC, SU5416 20 mg/kg IP, day 12, ± standard error of mean, control 466.7 ± 51.9
  Granulation: 256.8 ± 42.9
[3]; Table 1, F-ZC, SU5416, semi-quantitative scale of 0-4, ± SEM, control 1.75 ± 0.25
  Collagen: 0.5 ± 0.18
[3]; Table 1, F-ZC, SU5416, ± SEM, control 28.17 ± 0.42
  Microvessel: 26.25 ± 0.53
[3]; Table 1, SU5416 vs control
  Difference, Microvessel: 10%, p = 0.006,
[3]; [6]
  Difference, D-Dimer: 96%, n = 10
[3]; Table 1, SU5416 vs control, p = 0.001
  Difference, Collagen: 72%, p = 0.001,
[3]; Table 1, SU5416 vs control, p = 0.006
  Difference, Granulation: 45%, p = 0.006,
[4]; F-ZC tissue, SU5416 20 mg/kg IP vs controls
  reduction in active TGF β1 level: 90%
[4]; F-ZC tissue, SU5416 treated vs controls
  total TGF β1: increased
[4]; Table 1, F-ZC tissue lysates, SU5416, control 1.45 ± 0.1
  Active TGF β1: 0.11 ± 0.05 pg per mg of protein
[4]; Table 1, F-ZC tissue lysates, SU5416, control 7.72 ± 0.5
  Latent TGF β1: 11.85 ± 0.8 pg per mg of protein
[4]; [6]
  Difference, Active TGF β1: 93%, n = 10
  Difference, Latent TGF β1: 35%, n = 10

## angiostatin
[5]; 1 μM angiostatin in chamber
  healing response: reduction in healing response
[5]; 1 μM angiostatin in chamber vs controls (FIGS. 20A, 20B)
  gross appearance of chambers (influx of blood vessels): paler in color
[5]; 1 μM angiostatin in chamber vs controls (FIGS. 20C, 20D, 21)
  granulation tissue formation (depth): granulation tissue in controls (FIG. 20C) is distinctly more than angiostatin treated chambers; also recorded: inhibited granulation tissue formation
